According to ChEMBL document CHEMBL5500386, “Design, synthesis and bioactivity evaluation of 4-hydroxycoumarin derivatives as potential anti-inflammatory agents against acute lung injury and colitis” (Eur J Med Chem, 2024):

Biological target: T1, Inhibitor of nuclear factor kappa-B kinase subunit beta (Homo sapiens) (UniProt O14920)
T1 sequence (whole entry): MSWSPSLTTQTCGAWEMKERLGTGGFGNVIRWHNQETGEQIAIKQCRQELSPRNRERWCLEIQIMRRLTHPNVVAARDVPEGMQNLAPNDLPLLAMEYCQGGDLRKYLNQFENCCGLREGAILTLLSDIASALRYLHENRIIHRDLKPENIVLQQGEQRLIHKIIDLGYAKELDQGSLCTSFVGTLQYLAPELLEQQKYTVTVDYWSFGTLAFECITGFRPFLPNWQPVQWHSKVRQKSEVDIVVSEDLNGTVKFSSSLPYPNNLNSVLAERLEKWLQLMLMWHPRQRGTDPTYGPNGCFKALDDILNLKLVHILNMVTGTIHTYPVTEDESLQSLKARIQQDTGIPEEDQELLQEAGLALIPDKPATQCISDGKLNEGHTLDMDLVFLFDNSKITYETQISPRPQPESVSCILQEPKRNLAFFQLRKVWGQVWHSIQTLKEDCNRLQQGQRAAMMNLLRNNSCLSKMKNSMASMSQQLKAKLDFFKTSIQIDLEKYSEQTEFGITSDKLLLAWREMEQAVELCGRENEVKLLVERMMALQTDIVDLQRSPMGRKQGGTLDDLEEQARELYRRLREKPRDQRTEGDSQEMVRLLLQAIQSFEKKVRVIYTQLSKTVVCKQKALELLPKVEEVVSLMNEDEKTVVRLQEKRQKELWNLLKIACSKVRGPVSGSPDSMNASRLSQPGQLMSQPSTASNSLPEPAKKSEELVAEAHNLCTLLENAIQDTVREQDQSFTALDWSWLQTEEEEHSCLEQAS
Test: Inhibition of IKKbeta (unknown origin) at 10 uM relative to control

Q: Which inhibition does the source give for `CC(=O)N1CCN(CCOc2cc(=O)oc3ccccc23)CC1` here?
A: -9.11%
